Results reported in ChEMBL document CHEMBL1131246, “Design, synthesis, and biological evaluation of a second generation of pyrazolo[4,3-e]-1,2,4-triazolo[1,5-c]pyrimidines as potent and selective A2A adenosine receptor antagonists” (J Med Chem, 1998).

Tests used:
Adenosine receptor A3 [1] = biological target: T1, Adenosine receptor A3 (Homo sapiens, UniProt P0DMS8); assay: biochemical
T1 sequence (P0DMS8 whole entry): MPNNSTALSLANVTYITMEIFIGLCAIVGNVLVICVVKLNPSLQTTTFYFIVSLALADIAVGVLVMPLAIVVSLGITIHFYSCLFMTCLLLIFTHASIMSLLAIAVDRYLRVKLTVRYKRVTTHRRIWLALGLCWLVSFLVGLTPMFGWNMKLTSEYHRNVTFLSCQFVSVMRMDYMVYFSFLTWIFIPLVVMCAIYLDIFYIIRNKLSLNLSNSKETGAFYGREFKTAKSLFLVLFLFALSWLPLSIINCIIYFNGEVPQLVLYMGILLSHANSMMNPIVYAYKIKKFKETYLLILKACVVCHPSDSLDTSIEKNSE
Description: (§1) Displacement of [125I]AB-MECA from human Adenosine A3 receptor expressed in HEK293 cells

Adenosine receptor A2a [2] = biological target: T2, Adenosine receptor A2a (Homo sapiens, UniProt P29274); assay: Inhibition of 1 uM NECA-stimulated cyclic AMP levels in human platelets; format: functional
Adenosine receptor A2a [3] = biological target: Adenosine receptor A2a (Rattus norvegicus, UniProt P30543)
[4] = Selectivity for human A3 adenosine receptor and rat A2A adenosine receptor
Adenosine receptor A1 [5] = biological target: T3, Adenosine receptor A1 (Rattus norvegicus, UniProt P25099)
T3 sequence (P25099 whole entry): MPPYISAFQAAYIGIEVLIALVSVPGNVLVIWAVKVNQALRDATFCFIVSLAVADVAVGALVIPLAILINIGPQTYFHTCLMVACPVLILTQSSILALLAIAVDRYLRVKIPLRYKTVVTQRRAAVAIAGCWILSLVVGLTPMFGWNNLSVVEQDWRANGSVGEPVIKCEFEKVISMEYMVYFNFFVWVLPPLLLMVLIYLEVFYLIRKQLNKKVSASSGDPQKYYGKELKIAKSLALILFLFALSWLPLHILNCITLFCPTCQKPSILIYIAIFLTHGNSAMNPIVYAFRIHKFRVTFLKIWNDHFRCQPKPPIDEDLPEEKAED
Description: Displacement of [3H]CHA from rat cortical membrane Adenosine A1 receptor. Parenthesis indicate 95% confidence limit.

Adenosine receptor A1 [6] = biological target: T4, Adenosine receptor A1 (Homo sapiens, UniProt P30542); assay: Displacement of [3H]CHA from human Adenosine A1 receptor expressed in CHO cells; format: cell-based
T4 sequence (P30542 whole entry): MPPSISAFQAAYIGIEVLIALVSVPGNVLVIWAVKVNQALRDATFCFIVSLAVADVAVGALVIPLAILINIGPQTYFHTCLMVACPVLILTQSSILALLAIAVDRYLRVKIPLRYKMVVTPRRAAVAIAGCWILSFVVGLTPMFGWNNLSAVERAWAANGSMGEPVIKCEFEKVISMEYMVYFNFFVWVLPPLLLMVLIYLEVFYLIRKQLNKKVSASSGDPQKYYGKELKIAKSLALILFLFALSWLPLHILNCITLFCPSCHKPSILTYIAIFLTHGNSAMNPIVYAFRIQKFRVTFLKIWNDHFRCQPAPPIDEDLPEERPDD

Adenosine receptor A3 [7] = biological target: T1, Adenosine receptor A3; assay: biochemical; remark: listed apart in the source
Description: as §1

Adenosine receptor A2a [8] = biological target: T2, Adenosine receptor A2a; assay: Displacement of [3H]-SCH- 58261 from human Adenosine A2A receptor expressed in CHO cells; format: cell-based

T2 sequence (P29274 whole entry): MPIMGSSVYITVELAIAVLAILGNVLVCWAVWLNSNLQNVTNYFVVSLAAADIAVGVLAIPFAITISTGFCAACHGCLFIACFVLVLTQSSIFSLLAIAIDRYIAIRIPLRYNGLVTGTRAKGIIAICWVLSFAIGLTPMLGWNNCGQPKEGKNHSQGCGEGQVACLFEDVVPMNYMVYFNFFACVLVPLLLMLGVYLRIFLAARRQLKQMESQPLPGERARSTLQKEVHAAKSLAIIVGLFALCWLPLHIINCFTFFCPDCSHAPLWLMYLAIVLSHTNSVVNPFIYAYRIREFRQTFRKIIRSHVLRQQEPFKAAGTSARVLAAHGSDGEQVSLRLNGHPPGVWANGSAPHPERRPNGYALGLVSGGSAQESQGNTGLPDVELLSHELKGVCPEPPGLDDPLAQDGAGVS
Sequence of Adenosine receptor A2a (Rattus norvegicus, UniProt P30543) (P30543 whole entry): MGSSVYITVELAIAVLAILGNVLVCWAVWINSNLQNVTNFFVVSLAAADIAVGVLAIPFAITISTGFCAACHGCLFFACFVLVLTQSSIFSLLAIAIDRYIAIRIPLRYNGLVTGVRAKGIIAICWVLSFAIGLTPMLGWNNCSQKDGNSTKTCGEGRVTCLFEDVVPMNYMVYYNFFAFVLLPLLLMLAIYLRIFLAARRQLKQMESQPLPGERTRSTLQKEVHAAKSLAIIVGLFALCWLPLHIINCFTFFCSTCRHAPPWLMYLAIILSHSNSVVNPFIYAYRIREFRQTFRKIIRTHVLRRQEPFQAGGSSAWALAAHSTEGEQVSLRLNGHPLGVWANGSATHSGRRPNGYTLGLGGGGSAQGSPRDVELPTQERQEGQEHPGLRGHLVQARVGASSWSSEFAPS

Structure (SMILES) | Ki (Adenosine receptor A3 [1]) [µM] | IC50 (Adenosine receptor A2a [2]) [nM] | Ki (Adenosine receptor A2a [3]) [nM] | Selectivity [4] | Ki (Adenosine receptor A1 [5]) [nM] | Ki (Adenosine receptor A1 [6]) [nM] | Ki (Adenosine receptor A3 [7]) [µM] | Ki (Adenosine receptor A2a [8]) [nM]
Nc1nc2c(cnn2CCc2ccc(O)cc2)c2nc(-c3ccco3)nn12 | > 10 | 14 | 1.7 | > 5880 | 444 |  |  | 
Nc1nc2c(cnn2Cc2ccc(OCc3ccccc3)cc2)c2nc(-c3ccco3)nn12 | > 10 | 500 | 246 | > 40 | 9450 |  |  | 
Nc1nc2c(cnn2CCCc2ccc(O)c(O)c2)c2nc(-c3ccco3)nn12 | > 10 | 60 | 49 | > 204 | 2250 |  |  | 
COc1ccc(CCCn2ncc3c2nc(N)n2nc(-c4ccco4)nc32)cc1OC | > 10 | 20 | 5.3 | > 1890 | 2830 | 1650 | > 10 | 2.7
Nc1nc2c(cnn2Cc2ccc(O)cc2)c2nc(-c3ccco3)nn12 | > 10 | 149 | 53 | > 188 | 13400 |  |  | 
Nc1nc2c(cnn2CCCc2ccc(OCc3ccccc3)cc2)c2nc(-c3ccco3)nn12 | > 10 | 300 | 45 | > 222 | 1460 |  |  | 
Nc1nc2ccc(Cl)cc2c2nc(-c3ccco3)nn12 [CGS-15943] | 0.014 |  | 0.95 |  |  |  |  | 
Nc1nc2c(cnn2CCc2ccc(OCc3ccccc3)cc2)c2nc(-c3ccco3)nn12 | > 10 | 90 | 59 | > 169 | > 10000 |  |  | 
Nc1nc2c(cnn2CCCc2ccc(O)cc2)c2nc(-c3ccco3)nn12 | > 10 | 10 | 0.94 | > 10600 | 741 | 253 | > 10 | 1.5
Nc1nc2c(cnn2CCCc2ccc3c(c2)OCO3)c2nc(-c3ccco3)nn12 | > 10 | 8 | 3.8 | > 2630 | 1840 | 2170 | > 10 | 3.3

Continued, values first:

Ki (Adenosine receptor A3 [1]) [µM] | IC50 (Adenosine receptor A2a [2]) [nM] | Ki (Adenosine receptor A2a [3]) [nM] | Selectivity [4] | Ki (Adenosine receptor A1 [5]) [nM] | Ki (Adenosine receptor A1 [6]) [nM] | Ki (Adenosine receptor A3 [7]) [µM] | Ki (Adenosine receptor A2a [8]) [nM] | Structure (SMILES)
> 10 |  |  |  |  |  |  |  | Nc1nc2c(cnn2CCc2ccccc2)c2nc(-c3ccco3)nn12 [SCH-58261]
> 10 |  |  |  |  |  |  |  | Nc1nc2c(cnn2CCCc2ccccc2)c2nc(-c3ccco3)nn12 [SCH-63390]
